Results: patent US20110142959A1, “METHODS, SYSTEMS AND COMPOSITIONS INVOLVED IN THE SYNTHESIS OF NONSTABLE COMPOUNDS” (priority 2009, published 2011)

Test: Degradation of ferrate (K2FeO4) in solution at various pH
Type: physicochemical
Description: FIG. 1 is a profile of the ferrate concentration starting at 0.1% (5 mM) at the native pH of K2FeO4, about 10.7. […] FIGS. 2 and 3 show the ferrate degrading faster at the higher pH's recommended by the Ciampi et al patent(s). Within about 21-46 minutes in the range of pH 11.2-11.8 the ferrate completely degraded. At this higher pH the Fe(OH)3 forms much faster and contributes to the acceleration in degradation.
FIG. 4 discloses a slightly lower pH of 10.4 which was buffered to approximately pH 9 with NaOH. Ferrate was detected in the solution for about four hours.

time ferrate was detected in the solution (pH 10.4, buffered to approximately pH 9 with NaOH (FIG. 4)): about four
time within which the ferrate completely degraded (pH 11.2-11.8 (FIGS. 2 and 3)): 21 to 46 min
time ferrate was present in the solution (starting at 0.1% (5 mM), native pH of K2FeO4 about 10.7 (FIG. 1)): about 220 minutes
Substance: K2FeO4
